Results taken from patent US20110297235A1, “USE OF TRIARYLAMINE DERIVATIVES AS HOLE-CONDUCTING MATERIALS IN ORGANIC SOLAR CELLS AND ORGANIC SOLAR CELLS CONTAINING SAID TRIARYLAMINE DERIVATIVES” (BASF SE, priority 2009, published 2011).
In brackets after ≈: the same amount, converted by molar mass.

Key:
[1] = Glass transition temperature Tg and morphology M by means of DSC; format: physicochemical
physchem = conditions: organic solvent or mixture
[2] = Decomposition temperature Td by means of TGA; format: physicochemical

With `COc1ccc(N(c2ccc(OC)cc2)c2ccc(N(c3ccccc3)c3ccc(-c4ccc(N(c5ccccc5)c5ccc(N(c6ccc(OC)cc6)c6ccc(OC)cc6)cc5)cc4)cc3)cc2)cc1` [ID320] as the molecule, how does the “glass transition temperature Tg” value [1] read?
Its value is 96 °C.

What about the solubility (physchem; solubility L in chlorobenzene) of the same molecule?
The solubility was 760 to 1000 mg/mL (≈ 806 to 1060 mM).

What about the solubility (physchem; solubility in Ethyl acetate) of the same molecule?
The solubility was 140 mg/mL (≈ 148 mM).

And the solubility (physchem; solubility in Tetrahydrofuran)?
Its solubility is > 280 mg/mL.

What about the solubility (physchem; solubility in Toluene) of the same molecule?
The solubility was 280 mg/mL (≈ 297 mM).

What about the “decomposition temperature Td” value [2] of the same molecule?
The value was 450 °C.

Which “glass transition temperature Tg” value [1] does the source give for `COc1ccc(N(c2ccc(OC)cc2)c2ccc(-c3ccc(N(c4ccccc4)c4ccc(-c5ccc(N(c6ccccc6)c6ccc(-c7ccc(N(c8ccc(OC)cc8)c8ccc(OC)cc8)cc7)cc6)cc5)cc4)cc3)cc2)cc1` [ID321] here?
The value was 143 °C.

And the solubility (physchem; solubility L in chlorobenzene)?
Its solubility is 900 to 1150 mg/mL (≈ 822 to 1050 mM).

And the solubility (physchem; solubility in Ethyl acetate)?
Its solubility is 15 mg/mL (≈ 13.7 mM).

What about the solubility (physchem; solubility in Tetrahydrofuran) of the same molecule?
The solubility was > 240 mg/mL.

And the solubility (physchem; solubility in Toluene)?
Its solubility is > 100 mg/mL.

What about the “decomposition temperature Td” value [2] of the same molecule?
The value was 460 °C.

Which “glass transition temperature Tg” value [1] does the source give for `COc1ccc(N(c2ccc(N(c3ccccc3)c3ccc(N(c4ccccc4)c4ccc(N(c5ccc(OC)cc5)c5ccc6c(c5)C(C)(C)c5ccccc5-6)cc4)cc3)cc2)c2ccc3c(c2)C(C)(C)c2ccccc2-3)cc1` [ID366] here?
Its value is 127 °C.

What about the solubility (physchem; solubility L in chlorobenzene) of the same molecule?
The solubility was > 1100 mg/mL.

And the solubility (physchem; solubility in Ethyl acetate)?
Its solubility is > 560 mg/mL.

What about the solubility (physchem; solubility in Tetrahydrofuran) of the same molecule?
Its solubility is > 440 mg/mL.

And the solubility (physchem; solubility in Toluene)?
The solubility was > 380 mg/mL.

What about the “decomposition temperature Td” value [2] of the same molecule?
The value was 460 °C.

Which results are given for `COc1ccc(N(c2ccc(OC)cc2)c2ccc(-c3ccc(N(c4ccc(OC)cc4)c4ccc(-c5ccc(N(c6ccc(OC)cc6)c6ccc(-c7ccc(N(c8ccc(OC)cc8)c8ccc(OC)cc8)cc7)cc6)cc5)cc4)cc3)cc2)cc1` [ID367]?
glass transition temperature Tg [1]: 136 °C; solubility (physchem; solubility L in chlorobenzene): 700 to 1000 mg/mL (≈ 606 to 865 mM); solubility (physchem; solubility in Anisole): 450 to 700 mg/mL (≈ 389 to 606 mM); solubility (physchem; solubility in Ethyl acetate): 70 to 80 mg/mL (≈ 60.6 to 69.2 mM); solubility (physchem; solubility in Tetrahydrofuran): 370 to 550 mg/mL (≈ 320 to 476 mM); solubility (physchem; solubility in Toluene): 320 to 500 mg/mL (≈ 277 to 433 mM); decomposition temperature Td [2]: 450 °C

What does the source list for `COc1ccc(N(c2ccc(OC)cc2)c2ccc(-c3ccc(N(c4ccc(-c5ccc(N(c6ccc(-c7ccc(N(c8ccc(OC)cc8)c8ccc(OC)cc8)cc7)cc6)c6ccc(C(C)(C)C)cc6)cc5)cc4)c4ccc(C(C)(C)C)cc4)cc3)cc2)cc1` [ID368]?
glass transition temperature Tg [1]: 154 °C; solubility (physchem; solubility L in chlorobenzene): 500 to 1000 mg/mL (≈ 414 to 828 mM); solubility (physchem; solubility in Ethyl acetate): > 380 mg/mL; solubility (physchem; solubility in Tetrahydrofuran): 180 to 360 mg/mL (≈ 149 to 298 mM); solubility (physchem; solubility in Toluene): > 240 mg/mL; decomposition temperature Td [2]: 460 °C

For `COc1ccc(N(c2ccc(OC)cc2)c2ccc(-c3ccc(N(c4ccc(-c5ccc(N(c6ccc(-c7ccc(N(c8ccc(OC)cc8)c8ccc(OC)cc8)cc7)cc6)c6ccc7c(c6)C(C)(C)c6ccccc6-7)cc5)cc4)c4ccc5c(c4)C(C)(C)c4ccccc4-5)cc3)cc2)cc1` [ID369], which “glass transition temperature Tg” value [1] is on record?
Its value is 154 °C.

What about the solubility (physchem; solubility L in chlorobenzene) of the same molecule?
Its solubility is 300 to 450 mg/mL (≈ 226 to 339 mM).

And the solubility (physchem; solubility in Ethyl acetate)?
The solubility was 140 to 280 mg/mL (≈ 105 to 211 mM).

And the solubility (physchem; solubility in Tetrahydrofuran)?
The solubility was 100 to 150 mg/mL (≈ 75.3 to 113 mM).

And the solubility (physchem; solubility in Toluene)?
The solubility was 140 to 170 mg/mL (≈ 105 to 128 mM).

What about the “decomposition temperature Td” value [2] of the same molecule?
Its value is 460 °C.

With `COc1ccc(N(c2ccc(OC)cc2)c2ccc(-c3ccc(N(c4ccc(OC)cc4)c4ccc(N(c5ccc(OC)cc5)c5ccc(-c6ccc(N(c7ccc(OC)cc7)c7ccc(OC)cc7)cc6)cc5)cc4)cc3)cc2)cc1` [ID446] as the molecule, how does the “glass transition temperature Tg” value [1] read?
Its value is 120 °C.

What about the solubility (physchem; solubility L in chlorobenzene) of the same molecule?
Its solubility is 1250 to 2500 mg/mL (≈ 1160 to 2320 mM).

What about the solubility (physchem; solubility in Ethyl acetate) of the same molecule?
The solubility was 50 to 65 mg/mL (≈ 46.3 to 60.2 mM).

And the solubility (physchem; solubility in Tetrahydrofuran)?
The solubility was 1000 to 2000 mg/mL (≈ 927 to 1850 mM).

What about the solubility (physchem; solubility in Toluene) of the same molecule?
The solubility was > 460 mg/mL.

And the “decomposition temperature Td” value [2]?
The value was 430 °C.

Which “glass transition temperature Tg” value [1] does the source give for `COc1ccc(N(c2ccc(OC)cc2)c2ccc(-c3ccc(N(c4ccc(OC)cc4)c4ccc5c(c4)C(C)(C)c4cc(N(c6ccc(OC)cc6)c6ccc(-c7ccc(N(c8ccc(OC)cc8)c8ccc(OC)cc8)cc7)cc6)ccc4-5)cc3)cc2)cc1` [ID447] here?
The value was 137 °C.

And the solubility (physchem; solubility L in chlorobenzene)?
Its solubility is 900 to 1800 mg/mL (≈ 753 to 1510 mM).

What about the solubility (physchem; solubility in Ethyl acetate) of the same molecule?
The solubility was > 660 mg/mL.

And the solubility (physchem; solubility in Tetrahydrofuran)?
Its solubility is 750 to 1500 mg/mL (≈ 627 to 1250 mM).

And the solubility (physchem; solubility in Toluene)?
Its solubility is > 520 mg/mL.

What about the “decomposition temperature Td” value [2] of the same molecule?
Its value is 430 °C.

Which “glass transition temperature Tg” value [1] does the source give for `CCCCCCC1(CCCCCC)c2cc(N(c3ccc(OC)cc3)c3ccc(-c4ccc(N(c5ccc(OC)cc5)c5ccc(OC)cc5)cc4)cc3)ccc2-c2ccc(N(c3ccc(OC)cc3)c3ccc(-c4ccc(N(c5ccc(OC)cc5)c5ccc(OC)cc5)cc4)cc3)cc21` [ID450] here?
The value was 105 °C.

What about the solubility (physchem; solubility L in chlorobenzene) of the same molecule?
Its solubility is 900 to 1800 mg/mL (≈ 674 to 1350 mM).

And the “decomposition temperature Td” value [2]?
The value was 420 °C.
